The results in this text go back to patent US20250206751A1, “HETEROCYCLIC COMPOUND FOR INDUCING DEGRADATION OF G12D MUTANT KRAS PROTEIN” (Astellas Pharma Inc., priority 2022, published 2025).

One assay addresses T1, KRAS G12D protein (Homo sapiens, UniProt P01116, G12D).
T1 construct: host or cells: AsPC-1
In words: KRAS degradation activity by Cell ELISA in AsPC-1 (Test Example 1). It is filed as cell-based. The settings on record: AsPC-1 cells, cultured overnight with compound, corrected with β-actin, read-out: DC50 (50% degradation concentration of the amounts of KRAS). In outline: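 AsPC-1 cells (KRAS G12D), 2.0×10^4/well, treated overnight with compound (10 points, 10 μM–0.3 nM final) in RPMI 1640/10% FBS. Fixed cells immunostained for G12D-specific Ras and β-actin, with near-IR fluorescence read. Ras/actin ratio scaled DMSO = 0% and actin-only = 100%, and DC50 fitted by Sigmoid-Emax regression.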

The subject of assay [1] is phosphorylation of threonine 202 (Thr202) and tyrosine 204 (Tyr204) of ERK. In words: ERK phosphorylation inhibitory effect by Cell ELISA in AsPC-1 (Test Example 2). It counts as cell-based, human. The settings on record: Homo sapiens, ASPC1, AsPC-1 cells, cultured overnight with compound; 1 μM trametinib taken as 0%. The method, boiled down:
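AsPC-1 cells (G12D KRAS) treated overnight with compound (10 points, 10 μM to 0.3 nM final), then glyoxal-fixed and immunostained for phospho-ERK with a fluorescent secondary read at 800 nm. IC50 by Sigmoid-Emax regression, with DMSO as 100% and 1 μM trametinib as 0%.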

T1 sequence (P01116 1-188 isoform P01116-2 G12D): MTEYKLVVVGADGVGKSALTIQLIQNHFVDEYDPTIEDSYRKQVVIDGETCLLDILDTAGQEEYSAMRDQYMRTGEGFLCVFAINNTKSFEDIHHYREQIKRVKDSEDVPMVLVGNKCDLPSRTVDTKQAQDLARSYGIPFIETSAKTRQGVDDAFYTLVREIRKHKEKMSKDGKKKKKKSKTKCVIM

Turning to `Cc1ncsc1-c1ccc([C@H](CO)NC(=O)[C@@H]2C[C@@H](O)CN2C(=O)[C@H](C(C)C)n2cc(-c3ccc(COc4c(-c5c(C)c(F)cc6[nH]ncc56)c(C5CC5)cc5c(N(C)[C@H]6CCNC6)nc(OC[C@H]6CCCO6)nc45)cc3)nn2)cc1` (atropisomer, axis not shown; (M)) [Example 9, (4R)-1-[(2S)-2-{4-[4-({[(7M) 6-cyclopropyl-7-(6-fluoro-5-methyl-1H-indazol-4-yl)-4-{methyl[(3S)-pyrrolidin-3-yl]amino}-2-{[(2R)-oxolan-2-yl]methoxy}quinazolin-8-yl}oxy}methyl)phenyl]-1H-1,2,3-triazol-1-yl}-3-methylbutanoyl]-4-hydroxy-N-{(1R)-2-hydroxy-1-[4-(4-methyl-1,3-thiazol-5-yl)phenyl]ethyl}-L-prolinamide], at KRAS G12D protein, the DC50 stood at 15 nM. For the same molecule, in assay [1], the concentration for half-maximal inhibition (IC50) amounted to 11 nM.
As for `CO[C@@H](C)COc1cc(N(C)[C@H]2CCNC2)c2cc(C3CC3)c(-c3c(C)c(F)cc4[nH]ncc34)c(OCc3ccc(-c4cn([C@H](C(=O)N5C[C@H](O)C[C@H]5C(=O)N[C@@H](CO)c5ccc(-c6scnc6C)cc5)C(C)C)nn4)cc3)c2n1` (atropisomer, axis not shown; (M)) [Example 11, (4R)-1-[(2S)-2-{4-[4-({[(7M)-6-cyclopropyl-7-(6-fluoro-5-methyl-1H-indazol-4-yl)-2-[(2S)-2-methoxypropoxy]-4-{methyl[(3S)-pyrrolidin-3-yl]amino}quinazolin-8-yl]oxy}methyl)phenyl]-1H-1,2,3-triazol-1-yl}-3-methylbutanoyl]-4-hydroxy-N-{(1R)-2-hydroxy-1-[4-(4-methyl-1,3-thiazol-5-yl)phenyl]ethyl}-L-prolinamide], at KRAS G12D protein, the DC50 is 10 nM. For the same molecule, the IC50 in assay [1] was 24 nM.
With `CCn1nccc1-c1ccc([C@H](CO)NC(=O)[C@@H]2C[C@@H](O)CN2C(=O)[C@H](C(C)C)n2cc(-c3ccc(COc4c(-c5c(C)c(F)cc6[nH]ncc56)c(C5CC5)cc5c(N(C)[C@H]6CCNC6)nc(OC[C@H](C)OC)nc45)cc3)nn2)cc1` (atropisomer, axis not shown; (M)) [Example 13], at KRAS G12D protein, the DC50 came out at 10 nM. Further, in assay [1], the IC50 was 8 nM.
Turning to `CCN(c1nc(OC[C@H](C)OC)nc2c(OCc3ccc(-c4cn([C@H](C(=O)N5C[C@H](O)C[C@H]5C(=O)N[C@@H](CO)c5ccc(-c6scnc6C)cc5)C(C)C)nn4)cc3)c(-c3c(C)c(F)cc4[nH]ncc34)c(C3CC3)cc12)[C@H]1CCNC1` (atropisomer, axis not shown; (M)) [Example 50, (4R)-1-[(2S)-2-(4-{4-[({(7M)-6-cyclopropyl-4-{ethyl[(3S)-pyrrolidin-3-yl]amino}-7-(6-fluoro-5-methyl-1H-indazol-4-yl)-2-[(2S)-2-methoxypropoxy]quinazolin-8-yl}oxy)methyl)phenyl}-1H-1,2,3-triazol-1-yl)-3-methylbutanoyl]-4-hydroxy-N-{(1R)-2-hydroxy-1-[4-(4-methyl-1,3-thiazol-5-yl)phenyl]ethyl}-L-prolinamide], at KRAS G12D protein, the DC50 is 18 nM. The IC50 in assay [1] stood at 8 nM.
On the same counts, the results for `CO[C@@H](C)COc1nc(N(C)[C@@H]2CCNC2)c2cc(C3CC3)c(-c3c(C)c(F)cc4[nH]ncc34)c(OCc3ccc(-c4cn([C@H](C(=O)N5C[C@H](O)C[C@H]5C(=O)N[C@@H](CO)c5ccc(-c6scnc6C)cc5)C(C)C)nn4)cc3)c2n1` (atropisomer, axis not shown; (M)) [Example 53] are 7 nM and 9 nM.
